Reference: ChEMBL document CHEMBL1130951, “A photoactivated prodrug” (Bioorg Med Chem Lett, 1998)

How the values were obtained:
DH5 alpha [1] = assay: Compound was tested for its ability to inhibit growth of Escherichia coli DH5 alpha cells at 100 uM concentration; complete arrest of cell growth observed; format: functional, cell-based
[2] = T1/2 was determined; format: ADME
DH5 alpha [3] = assay: Compound was irradiated and tested for its ability to inhibit growth of Escherichia coli DH5 alpha cells at 100 uM concentration; cell growth almost completely inhibited.; format: functional, cell-based
DH5 alpha [4] = assay: Compound was tested for its ability to inhibit growth of Escherichia coli DH5 alpha cells at 100 uM concentration; slight growth inhibition observed; format: functional, cell-based

half-life [2] | SMILES | inhibition (DH5 alpha [1]) | inhibition (DH5 alpha [3]) | inhibition (DH5 alpha [4])
– | O=c1[nH]c(=O)n([C@H]2C[C@H](O)[C@@H](CO)O2)cc1F | complete arrest of cell growth observed | – | –
6 min | COc1cc(COC(=O)OC[C@H]2O[C@@H](n3cc(F)c(=O)[nH]c3=O)C[C@@H]2O)c([N+](=O)[O-])cc1OC | – | cell growth almost completely inhibited | cell growth almost completely inhibited
